{
  "source": "patent US12630547B2",
  "about": "“RAS protein degraders, pharmaceutical compositions thereof, and their therapeutic applications” (BioTheryX, Inc., priority 2019, dated 2026)",
  "data": [
    {"system": "H23 cells", "assay": "Cell viability assay (CELLTITER-GLO), H23 cells", "assay_type": "cell-based", "settings": "Table 4; 3 days", "description": "(§1) MOLM-13 cells, MV-4-11 cells, H23, and H358 cells were independently cultured in RPMI 1640 media supplemented with 10% fetal bovine serum, streptomycin and penicillin. The cells were plated in white walled 96-well plates at 4,000 cells/well. The cells were incubated in DMSO (control) or a compound for 3 days at 37° C. under 5% CO2. A CELLTITER-GLO® reagent (100 μL) was then added to each well. After a 10 min incubation with shaking, luminescence was measured using an ENVISION® multimode plate reader.\n(§2) IC50 values are summarized in Table 4, where “A” represents an IC50 value of no greater than 1 μM, “B” represents an IC50 value of greater than 1 μM and no greater than 5 μM, “C” represents an IC50 value of greater than 5 μM and no greater than 10 μM, and “D” represents an IC50 value of greater than 10 μM.", "values": [
      {"smiles": "C=CC(=O)N1CCN(c2ncnc3c(F)c(-c4cc(OCCOCCOCCC(=O)NCCNc5cccc6c5CN(C5CCC(=O)NC5=O)C6=O)ccc4F)c(Cl)cc23)CC1", "note": "[Compound 39, 3-(2-(2-((R)-3-(4-(4-Acryloylpiperazin-1-yl)-6-chloro-8-fluoroquinazolin-7-yl)-4-fluorophenoxy)ethoxy)ethoxy)-N-(2-((2-(2,6-dioxopiperidin-3-yl)-1-oxoisoindolin-4-yl)amino)ethyl)propanamide]", "Inhibition of H23 cells, IC50 (class)": "D′"},
      {"smiles": "C=CC(=O)N1CCN(c2nc(OCCOCCOCCOCCNc3cccc4c3C(=O)N(C3CCC(=O)NC3=O)C4=O)nc3c2CCN(c2cccc4ccccc24)C3)C[C@H]1C", "note": "(stereo partly drawn) [Compound 47, 4-((2-(2-(2-(2-((4-((R)-4-Acryloyl-3-methylpiperazin-1-yl)-7-(naphthalen-1-yl)-5,6,7,8-tetrahydropyrido[3,4-d]pyrimidin-2-yl)oxy)ethoxy)ethoxy)ethoxy)ethyl)amino)-2-(2,6-dioxopiperidin-3-yl)isoindoline-1,3-dione]", "Inhibition of H23 cells, IC50 (class)": "B′"}
    ]},
    {"system": "MOLM-13 cells", "assay": "Cell viability assay (CELLTITER-GLO), MOLM-13 cells", "assay_type": "cell-based", "settings": "Homo sapiens, MOLM-13, 72 h; Table 2; compound at 10 μM, 3 days; read-out: Effect on MOLM-13 cell viability (% DMSO)", "description": "as §1\nIn Tables 1 and 2, each compound was tested at 10 μM; and in Table 3, each compound was tested at 1 μM. In Tables 1 to 3, the cell viability values as % DMSO are reported as “A,” “B,” “C,” or “D;” where “A” represents a % viability value of less than 10%; “B” represents a % viability value of no less than 10% and less than 25%; “C” represents a % viability value of no less than 25% and less than 50%; and “D” represents a % viability value of no less than 50%. Compound A is […]", "units": {"viability at 10 µM": "%"}, "values": [
      {"smiles": "C=CC(=O)N1CC(c2nc3ccc(-c4cc(O)cc5ccccc45)cc3c(=O)n2CC(=O)NCCOCCOCCOCCNc2cccc3c2C(=O)N(C2CCC(=O)NC2=O)C3=O)C1", "note": "(stereo not shown) [Compound 17, 2-(2-(1-Acryloylazetidin-3-yl)-6-(3-hydroxynaphthalen-1-yl)-4-oxoquinazolin-3(4H)-yl)-N-(2-(2-(2-(2-((2-(2,6-dioxopiperidin-3-yl)-1,3-dioxoisoindolin-4-yl)amino)ethoxy)ethoxy)ethoxy)-ethyl)acetamide]", "viability at 10 µM": "≥ 50"},
      {"smiles": "C=CC(=O)N1CC(c2nc3ccc(-c4cc(O)cc5ccccc45)cc3c(=O)n2CCNCc2ccc(OCc3scc4c3CN(C3CCC(=O)NC3=O)C4=O)cc2)C1", "note": "(stereo not shown) [Compound 18, 3-(1-((4-(((2-(2-(1-Acryloylazetidin-3-yl)-6-(3-hydroxynaphthalen-1-yl)-4-oxoquinazolin-3(4H)-yl)ethyl)amino)methyl)phenoxy)methyl)-4-oxo-4H-thieno[3,4-c]pyrrol-5(6H)-yl)piperidine-2,6-dione]", "viability at 10 µM": "≥ 50"},
      {"smiles": "C=CC(=O)N1CC(N2Cc3ccc(-c4cc(O)cc5ccccc45)cc3N(CCCCNCc3ccc(OCc4scc5c4CN(C4CCC(=O)NC4=O)C5=O)cc3)C2=O)C1", "note": "(stereo not shown) [Compound 19, 3-(1-((4-(((4-(3-(1-Acryloylazetidin-3-yl)-7-(3-hydroxynaphthalen-1-yl)-2-oxo-3,4-dihydroquinazolin-1(2H)-yl)butyl)amino)methyl)phenoxy)methyl)-4-oxo-4H-thieno[3,4-c]pyrrol-5(6H)-yl)piperidine-2,6-dione]", "viability at 10 µM": "≥ 50"},
      {"smiles": "C=CC(=O)N1CC(c2nc3ccc(-c4cc(O)cc5ccccc45)cc3c(=O)n2CCOCCNCc2ccc(OCc3scc4c3CN(C3CCC(=O)NC3=O)C4=O)cc2)C1", "note": "(stereo not shown) [Compound 21, 3-(1-((4-(((2-(2-(2-(1-Acryloylazetidin-3-yl)-6-(3-hydroxynaphthalen-1-yl)-4-oxoquinazolin-3(4H)-yl)ethoxy)ethyl)amino)methyl)phenoxy)methyl)-4-oxo-4H-thieno[3,4-c]pyrrol-5(6H)-yl)piperidine-2,6-dione]", "viability at 10 µM": "≥ 50"},
      {"smiles": "CCC(=O)N1CCN(c2ncnc3c(F)c(-c4c(F)cccc4OCCCCCCCNCc4ccc(OCc5scc6c5CN([C@H]5CCC(=O)NC5=O)C6=O)cc4)c(Cl)cc23)CC1", "note": "[Compound 25, (3S)-3-(1-((4-(((7-(2-(6-Chloro-8-fluoro-4-(4-propionylpiperazin-1-yl)quinazolin-7-yl)-3-fluorophenoxy)heptyl)amino)methyl)phenoxy)methyl)-4-oxo-4H-thieno[3,4-c]pyrrol-5(6H)-yl)piperidine-2,6-dione]", "viability at 10 µM": "< 10"},
      {"smiles": "CCC(=O)N1CC(c2nc3ccc(-c4cc(O)cc5ccccc45)cc3c(=O)n2CCOCCNCc2ccc(OCc3scc4c3CN(C3CCC(=O)NC3=O)C4=O)cc2)C1", "note": "(stereo not shown) [Compound 26, 3-(1-((4-(((2-(2-(6-(3-Hydroxynaphthalen-1-yl)-4-oxo-2-(1-propionylazetidin-3-yl)quinazolin-3(4H)-yl)ethoxy)ethyl)amino)methyl)phenoxy)methyl)-4-oxo-4H-thieno[3,4-c]pyrrol-5(6H)-yl)piperidine-2,6-dione]", "viability at 10 µM": "≥ 50"},
      {"smiles": "C=CC(=O)N1CCN(c2ncnc3c(F)c(-c4c(F)cccc4OCCCCCCCNC(=O)NCc4scc5c4CN(C4CCC(=O)NC4=O)C5=O)c(Cl)cc23)CC1", "note": "(stereo not shown) [Compound 27, 1-(7-(2-(4-(4-Acryloylpiperazin-1-yl)-6-chloro-8-fluoroquinazolin-7-yl)-3-fluorophenoxy)heptyl)-3-((5-(2,6-dioxopiperidin-3-yl)-4-oxo-5,6-dihydro-4H-thieno[3,4-c]pyrrol-1-yl)methyl)urea]", "viability at 10 µM": "< 10"},
      {"smiles": "CCC(=O)N1CCN(c2ncnc3c(F)c(-c4c(F)cccc4OCCCCCCCNC(=O)NCc4scc5c4CN(C4CCC(=O)NC4=O)C5=O)c(Cl)cc23)CC1", "note": "(stereo not shown) [Compound 28, 1-(7-(2-(6-Chloro-8-fluoro-4-(4-propionylpiperazin-1-yl)quinazolin-7-yl)-3-fluorophenoxy)heptyl)-3-((5-(2,6-dioxopiperidin-3-yl)-4-oxo-5,6-dihydro-4H-thieno[3,4-c]pyrrol-1-yl)methyl)urea]", "viability at 10 µM": "< 10"},
      {"smiles": "C=CC(=O)N1CCN(c2ncnc3c(F)c(-c4c(F)cccc4OCCOCCOCCC(=O)NCCNc4cccc5c4CN(C4CCC(=O)NC4=O)C5=O)c(Cl)cc23)CC1", "note": "(stereo not shown) [Compound 29, 3-(2-(2-(2-(4-(4-Acryloylpiperazin-1-yl)-6-chloro-8-fluoroquinazolin-7-yl)-3-fluorophenoxy)ethoxy)ethoxy)-N-(2-((2-(2,6-dioxopiperidin-3-yl)-1-oxoisoindolin-4-yl)amino)ethyl)propanamide]", "viability at 10 µM": "< 10"},
      {"smiles": "CCC(=O)N1CCN(c2ncnc3c(F)c(-c4c(F)cccc4OCCOCCOCCC(=O)NCCNc4cccc5c4CN(C4CCC(=O)NC4=O)C5=O)c(Cl)cc23)CC1", "note": "(stereo not shown) [Compound 30, 3-(2-(2-(2-(6-chloro-8-fluoro-4-(4-propionylpiperazin-1-yl)quinazolin-7-yl)-3-fluorophenoxy)ethoxy)ethoxy)-N-(2-((2-(2,6-dioxopiperidin-3-yl)-1-oxoisoindolin-4-yl)amino)ethyl)propanamide]", "viability at 10 µM": "≥ 50"},
      {"smiles": "CC(=O)N1CCN(c2ncnc3c(F)c(-c4c(F)cccc4OCCOCCOCCOCCNc4cccc5c4C(=O)N(C4CCC(=O)NC4=O)C5=O)c(Cl)cc23)CC1", "note": "(stereo not shown) [Compound 31, 4-((2-(2-(2-(2-(2-(4-(4-Acetylpiperazin-1-yl)-6-chloro-8-fluoroquinazolin-7-yl)-3-fluorophenoxy)ethoxy)ethoxy)ethoxy)ethyl)amino)-2-(2,6-dioxopiperidin-3-yl)isoindoline-1,3-dione]", "viability at 10 µM": "≥ 50"},
      {"smiles": "NC(=O)N1CCN(c2ncnc3c(F)c(-c4c(F)cccc4OCCOCCOCCOCCNc4cccc5c4C(=O)N(C4CCC(=O)NC4=O)C5=O)c(Cl)cc23)CC1", "note": "(stereo not shown) [Compound 32, 4-(6-Chloro-7-(2-(2-(2-(2-(2-((2-(2,6-dioxopiperidin-3-yl)-1,3-dioxoisoindolin-4-yl)amino)ethoxy)ethoxy)ethoxy)ethoxy)-6-fluorophenyl)-8-fluoroquinazolin-4-yl)piperazine-1-carboxamide]", "viability at 10 µM": "≥ 50"},
      {"smiles": "CCC(=O)N1CCN(c2ncnc3c(F)c(-c4c(F)cccc4OCCCCCCCCNc4cccc5c4C(=O)N(C4CCC(=O)NC4=O)C5=O)c(Cl)cc23)CC1", "note": "(stereo not shown) [Compound 33, 4-((8-(2-(6-Chloro-8-fluoro-4-(4-propionylpiperazin-1-yl)quinazolin-7-yl)-3-fluorophenoxy)octyl)amino)-2-(2,6-dioxopiperidin-3-yl)isoindoline-1,3-dione]", "viability at 10 µM": "25 to 50"},
      {"smiles": "C=CC(=O)N1CCN(c2ncnc3c(F)c(-c4c(F)cccc4OCCCCCCCCNc4cccc5c4C(=O)N(C4CCC(=O)NC4=O)C5=O)c(Cl)cc23)CC1", "note": "(stereo not shown) [Compound 34, 4-((8-(2-(4-(4-Acryloylpiperazin-1-yl)-6-chloro-8-fluoroquinazolin-7-yl)-3-fluorophenoxy)octyl)amino)-2-(2,6-dioxopiperidin-3-yl)isoindoline-1,3-dione]", "viability at 10 µM": "10 to 25"},
      {"smiles": "CCC(=O)N1CC(N2Cc3ccc(-c4cc(O)cc5ccccc45)cc3N(CC(=O)NCCCCCCCN3CCC(c4cc(F)cc5c4CN(C4CCC(=O)NC4=O)C5=O)CC3)C2=O)C1", "note": "(stereo not shown) [Compound 35, N-(7-(4-(2-(2,6-Dioxopiperidin-3-yl)-6-fluoro-1-oxoisoindolin-4-yl)piperidin-1-yl)heptyl)-2-(7-(3-hydroxynaphthalen-1-yl)-2-oxo-3-(1-propionylazetidin-3-yl)-3,4-dihydroquinazolin-1(2H)-yl)acetamide]", "viability at 10 µM": "10 to 25"}
    ]},
    {"system": "H358 cells", "assay": "Cell viability assay (CELLTITER-GLO), H358 cells", "assay_type": "cell-based", "settings": "Table 4; 3 days", "description": "as §1\nIn Tables 1 and 2, each compound was tested at 10 μM; and in Table 3, each compound was tested at 1 μM. In Tables 1 to 3, the cell viability values as % DMSO are reported as “A,” “B,” “C,” or “D;” where “A” represents a % viability value of less than 10%; “B” represents a % viability value of no less than 10% and less than 25%; “C” represents a % viability value of no less than 25% and less than 50%; and “D” represents a % viability value of no less than 50%. Compound A is\nas §2", "values": [
      {"smiles": "C=CC(=O)N1CCN(c2ncnc3c(F)c(-c4cc(OCCOCCOCCC(=O)NCCNc5cccc6c5CN(C5CCC(=O)NC5=O)C6=O)ccc4F)c(Cl)cc23)CC1", "note": "[Compound 39, 3-(2-(2-((R)-3-(4-(4-Acryloylpiperazin-1-yl)-6-chloro-8-fluoroquinazolin-7-yl)-4-fluorophenoxy)ethoxy)ethoxy)-N-(2-((2-(2,6-dioxopiperidin-3-yl)-1-oxoisoindolin-4-yl)amino)ethyl)propanamide]", "Inhibition of H358 cells, IC50 (class)": "D′"},
      {"smiles": "C=CC(=O)N1CCN(c2nc(OCCOCCOCCOCCNc3cccc4c3C(=O)N(C3CCC(=O)NC3=O)C4=O)nc3c2CCN(c2cccc4ccccc24)C3)C[C@H]1C", "note": "(stereo partly drawn) [Compound 47, 4-((2-(2-(2-(2-((4-((R)-4-Acryloyl-3-methylpiperazin-1-yl)-7-(naphthalen-1-yl)-5,6,7,8-tetrahydropyrido[3,4-d]pyrimidin-2-yl)oxy)ethoxy)ethoxy)ethoxy)ethyl)amino)-2-(2,6-dioxopiperidin-3-yl)isoindoline-1,3-dione]", "Inhibition of H358 cells, IC50 (class)": "C′"}
    ]}
  ]
}
